US11566007B2, “Ras inhibitors” (Revolution Medicines, Inc., priority 2019, dated 2023)
Several values for one entry are separate records, joined by “and”; a condition that tells them apart may be missing. Identical values can stand only once.

How the values were obtained:
Format in all cases: biochemical
K-Ras G12C = K-Ras G12C (Homo sapiens (Human), UniProt P01116+P62937, G12C); assay: Ras-Raf (BRAF RBD) disruption / FRET / MOA assay, KRAS G12C; details: KRAS G12C; Ras-Raf disruption/FRET/MOA assay; read-out: IC50* KRAS G12C FRET data
K-Ras G12C, sequence (P01116-2 other isoform, or with tags, fused parts or gaps G12C): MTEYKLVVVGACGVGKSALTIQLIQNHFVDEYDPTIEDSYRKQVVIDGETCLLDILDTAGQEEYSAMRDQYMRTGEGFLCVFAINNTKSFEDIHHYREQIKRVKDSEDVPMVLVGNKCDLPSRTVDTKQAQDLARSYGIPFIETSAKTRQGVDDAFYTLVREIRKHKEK
K-Ras G12C, sequence (P62937 whole entry): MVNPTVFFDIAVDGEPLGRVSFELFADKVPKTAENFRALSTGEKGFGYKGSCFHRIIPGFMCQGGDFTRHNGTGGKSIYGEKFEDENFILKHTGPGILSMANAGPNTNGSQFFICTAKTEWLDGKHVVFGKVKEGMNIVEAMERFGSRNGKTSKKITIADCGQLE
Method in brief: (§1)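 A 10-point, 3-fold dilution series topping at 30 μM final was incubated 3 h at 25° C with the Ras/cyclophilin A/BRAF RBD mixture.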

KRAS G12D = KRAS G12D (Homo sapiens (Human), UniProt P01116+P62937, G12D); assay: Ras-Raf (BRAF RBD) disruption / FRET / MOA assay, KRAS G12D; details: Ras-Raf disruption/FRET/MOA assay; class symbols; read-out: KRAS G12D FRET data IC50
KRAS G12D, sequence (P01116-2 other isoform, or with tags, fused parts or gaps G12D): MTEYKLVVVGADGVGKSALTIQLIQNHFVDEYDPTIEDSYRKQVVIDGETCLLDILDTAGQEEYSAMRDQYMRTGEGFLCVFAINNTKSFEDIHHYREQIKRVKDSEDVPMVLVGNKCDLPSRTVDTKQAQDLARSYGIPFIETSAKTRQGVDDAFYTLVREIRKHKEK
KRAS G12D, sequence (P62937 whole entry): as the sequence (P62937 whole entry) above
Method in brief: as §1

KRAS WT = KRAS WT (Homo sapiens (Human), UniProt P01116+P62937); assay: Ras-Raf (BRAF RBD) disruption / FRET / MOA assay, KRAS WT; details: read-out: IC50* KRAS WT FRET data
KRAS WT, sequence (P01116-2 other isoform, or with tags, fused parts or gaps): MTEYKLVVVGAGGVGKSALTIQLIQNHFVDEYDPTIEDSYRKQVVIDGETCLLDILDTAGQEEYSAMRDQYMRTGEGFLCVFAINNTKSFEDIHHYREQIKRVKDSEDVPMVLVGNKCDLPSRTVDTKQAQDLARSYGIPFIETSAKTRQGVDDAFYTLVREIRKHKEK
KRAS WT, sequence (P62937 whole entry): as the sequence (P62937 whole entry) above
Method in brief: as §1

KRAS G13D = KRAS G13D (Homo sapiens (Human), UniProt P01116+P62937, G13D); assay: Ras-Raf (BRAF RBD) disruption / FRET / MOA assay, KRAS G13D; details: read-out: IC50* KRAS G13D FRET data
KRAS G13D, sequence (P01116-2 other isoform, or with tags, fused parts or gaps G13D): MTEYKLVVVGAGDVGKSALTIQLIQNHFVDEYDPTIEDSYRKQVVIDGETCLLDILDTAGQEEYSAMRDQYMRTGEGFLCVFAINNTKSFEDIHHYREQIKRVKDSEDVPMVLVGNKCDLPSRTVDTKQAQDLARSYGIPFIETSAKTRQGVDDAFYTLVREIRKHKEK
KRAS G13D, sequence (P62937 whole entry): as the sequence (P62937 whole entry) above
Method in brief: as §1

KRAS Q61H = KRAS Q61H (Homo sapiens (Human), UniProt P01116+P62937, Q61H); assay: Ras-Raf (BRAF RBD) disruption / FRET / MOA assay, KRAS Q61H; details: Ras-Raf disruption/FRET/MOA assay; class symbols; read-out: KRAS Q61H FRET data IC50
KRAS Q61H, sequence (P01116-2 other isoform, or with tags, fused parts or gaps Q61H): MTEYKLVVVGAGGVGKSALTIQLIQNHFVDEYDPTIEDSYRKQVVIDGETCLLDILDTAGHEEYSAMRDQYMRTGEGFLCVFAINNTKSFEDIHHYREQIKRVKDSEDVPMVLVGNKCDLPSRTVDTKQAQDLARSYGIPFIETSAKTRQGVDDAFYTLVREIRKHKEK
KRAS Q61H, sequence (P62937 whole entry): as the sequence (P62937 whole entry) above
Method in brief: (§2)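 Compounds (30 μM top final, 10-point 3-fold dilutions) incubated 3 h at 25° C with nucleotide-loaded Ras, cyclophilin A and BRAF RBD. Detection with 10 nM anti-His Eu-W1024 and 50 nM anti-GST allophycocyanin over another 1.5 h. Lowered TR-FRET ratio relative to DMSO wells gives IC50.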

NRAS Q61R = NRAS Q61R (Homo sapiens (Human), UniProt P01111+P62937, Q61R); assay: Ras-Raf (BRAF RBD) disruption / FRET / MOA assay, NRAS Q61R; details: NRAS Q61R; Ras-Raf disruption/FRET/MOA assay; read-out: IC50* NRAS Q61R FRET data
NRAS Q61R, sequence (P01111 whole entry Q61R): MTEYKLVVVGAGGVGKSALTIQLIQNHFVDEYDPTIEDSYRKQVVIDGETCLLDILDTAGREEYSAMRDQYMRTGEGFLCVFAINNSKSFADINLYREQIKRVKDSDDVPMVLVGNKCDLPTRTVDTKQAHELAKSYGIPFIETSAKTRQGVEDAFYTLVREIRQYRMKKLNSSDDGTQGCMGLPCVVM
NRAS Q61R, sequence (P62937 whole entry): as the sequence (P62937 whole entry) above
Method in brief: as §2

NRAS Q61K = NRAS Q61K (Homo sapiens (Human), UniProt P01111+P62937, Q61K); assay: Ras-Raf (BRAF RBD) disruption / FRET / MOA assay, NRAS Q61K; details: NRAS Q61K; Ras-Raf disruption/FRET/MOA assay; read-out: IC50* NRAS Q61K FRET data
NRAS Q61K, sequence (P01111 whole entry Q61K): as the sequence (P01111 whole entry Q61R) above, with R61K counted along it
NRAS Q61K, sequence (P62937 whole entry): as the sequence (P62937 whole entry) above
Method in brief: as §2

Row | SMILES | IC50 (K-Ras G12C) | IC50 (KRAS G12D) | IC50 (KRAS WT) | IC50 (KRAS G13D) | IC50 (KRAS Q61H) [nM] | IC50 (NRAS Q61R) [nM] | IC50 (NRAS Q61K) [nM]
1 | CCn1c(-c2cccnc2[C@H](C)OC)c2c3cc(ccc31)-c1csc(n1)C[C@H](NC(=O)[C@H](C(C)C)N(C)C(=O)N1CCN(C(=O)/C=C/CN(C)C)C3(CC3)C1)C(=O)N1CCC[C@H](N1)C(=O)OCC(C)(C)C2 (atropisomer, axis not shown) [Example A701] | 10 to 100 nM | 100 to 1000 nM | 100 to 1000 nM | 100 to 1000 nM | 10 to 100 | 100 to 1000 | 10 to 100
2 | CCn1c(-c2cccnc2[C@H](C)OC)c2c3cc(ccc31)-c1csc(n1)C[C@H](NC(=O)[C@H](C(C)C)N(C)C(=O)N1CCC3(CC1)CN(C(=O)/C=C/CN(C)C)C3)C(=O)N1CCC[C@H](N1)C(=O)OCC(C)(C)C2 (atropisomer, axis not shown) [Example A650] | 10 to 100 nM | 100 to 1000 nM | 100 to 1000 nM | 100 to 1000 nM | 10 to 100 | 100 to 1000 | 10 to 100
3 | C=CC(=O)N1CCC2(CC1)CN(C(=O)N(C)[C@H](C(=O)N[C@H]1Cc3nc(cs3)-c3ccc4c(c3)c(c(-c3cccnc3[C@H](C)OC)n4CC)CC(C)(C)COC(=O)[C@@H]3CCCN(N3)C1=O)C(C)C)C2 (atropisomer, axis not shown) [Example A702] | 100 to 1000 nM | 1000 to 10000 nM | 100 to 1000 nM | 1000 to 10000 nM | 10 to 100 | 100 to 1000 | 10 to 100
4 | C=CC(=O)N1CC(N2CCN(C(=O)N(C)[C@H](C(=O)N[C@H]3Cc4nc(cs4)-c4ccc5c(c4)c(c(-c4cccnc4[C@H](C)OC)n5CC)CC(C)(C)COC(=O)[C@@H]4CCCN(N4)C3=O)C(C)C)CC2)C1 (atropisomer, axis not shown) [Example A668] | 10 to 100 nM | 1000 to 10000 nM | 100 to 1000 nM | 1000 to 10000 nM | 10 to 100 | 100 to 1000 | 10 to 100
5 | C=CC(=O)N1CC[C@H](C(=O)N(C)[C@H](C(=O)N[C@H]2Cc3cc(O)cc(c3)-c3ccc4c(c3)c(c(-c3cc(C)ccc3[C@H](C)OC)n4CC)CC(C)(C)COC(=O)[C@@H]3CCCN(N3)C2=O)C(C)C)C1 (atropisomer, axis not shown) [Example A167] | 100 to 1000 nM and < 10 nM | > 10000 nM and 100 to 1000 nM | 1000 to 10000 nM and 10 to 100 nM | 100 to 1000 nM and > 10000 nM | 10 to 100 | 100 to 1000 | 100 to 1000
6 | CCn1c(-c2cccnc2[C@H](C)OC)c2c3cc(ccc31)-c1csc(n1)C[C@H](NC(=O)CN1CC[C@@]3(CCN(C(=O)C#CC(C)(C)N4CCC4)C3)C1)C(=O)N1CCC[C@H](N1)C(=O)OCC(C)(C)C2 (atropisomer, axis not shown) [Example A364] | 100 to 1000 nM | > 10000 nM | 1000 to 10000 nM | 1000 to 10000 nM | 1000 to 10000 | 1000 to 10000 | 1000 to 10000
7 | C=CC(=O)N1CCC2(CCN(C(=O)N(C)[C@H](C(=O)N[C@H]3Cc4nc(cs4)-c4ccc5c(c4)c(c(-c4cccnc4[C@H](C)OC)n5CC)CC(C)(C)COC(=O)[C@@H]4CCCN(N4)C3=O)C(C)C)CC2)C1 (atropisomer, axis not shown) [Example A698] | 10 to 100 nM | 100 to 1000 nM | 100 to 1000 nM | 100 to 1000 nM | 10 to 100 | 100 to 1000 | 10 to 100
8 | C=CC(=O)N1C[C@H](C)N(C(=O)N(C)[C@H](C(=O)N[C@H]2Cc3nc(cs3)-c3ccc4c(c3)c(c(-c3cccnc3[C@H](C)OC)n4CC)CC(C)(C)COC(=O)[C@@H]3CCCN(N3)C2=O)C(C)C)CC12CC2 (atropisomer, axis not shown) [Example A586] | 100 to 1000 nM | 1000 to 10000 nM | 100 to 1000 nM | 1000 to 10000 nM | 10 to 100 | 100 to 1000 | 100 to 1000
9 | C=CS(=O)(=O)N1CC[C@H](C(=O)N(C)[C@H](C(=O)N[C@H]2Cc3cc(O)cc(c3)-c3ccc4c(c3)c(c(-c3cncnc3)n4CC)CC(C)(C)COC(=O)[C@@H]3CCCN(N3)C2=O)C(C)C)C1 [Example A172] | 10 to 100 nM | > 10000 nM | 1000 to 10000 nM | > 10000 nM | 100 to 1000 | > 10000 | 1000 to 10000
10 | CCn1c(-c2cccnc2[C@H](C)OC)c2c3cc(ccc31)-c1cccc(c1)C[C@H](NC(=O)[C@@H](COC1CN(C(=O)C#C[C@H]3COCCN3C)C1)C(C)C)C(=O)N1CCC[C@H](N1)C(=O)OCC(C)(C)C2 (atropisomer, axis not shown) [Example A644] | 10 to 100 nM | > 10000 nM | > 10000 nM | > 10000 nM | > 10000 | > 10000 | > 10000
11 | C=CC(=O)N1CCN(C(=O)N(C)[C@H](C(=O)N[C@H]2Cc3nc(cs3)-c3ccc4c(c3)c(c(-c3cccnc3[C@H](C)OC)n4CC)CC(C)(C)COC(=O)[C@@H]3CCCN(N3)C2=O)C(C)C)[C@@H]2CC[C@@H]21 (atropisomer, axis not shown) [Example A718] | 100 to 1000 nM | 1000 to 10000 nM | 100 to 1000 nM | 100 to 1000 nM | 10 to 100 | 100 to 1000 | 10 to 100
12 | C=CC(=O)N1CC[C@H](C(=O)N(C)[C@H](C(=O)N[C@H]2Cc3cccc(c3)-c3ccc4c(c3)c(c(-c3cccnc3[C@H](C)OC)n4CC#CC)CC(C)(C)COC(=O)[C@@H]3CCCN(N3)C2=O)C(C)C)C1 (atropisomer, axis not shown) [Example A531] | 100 to 1000 nM | > 10000 nM | 1000 to 10000 nM | > 10000 nM | 1000 to 10000 | 1000 to 10000 | 1000 to 10000
13 | C=CC(=O)N1CCOC2(C1)CN(C(=O)N(C)[C@H](C(=O)N[C@H]1Cc3nc(cs3)-c3ccc4c(c3)c(c(-c3cccnc3[C@H](C)OC)n4CC(F)(F)F)CC(C)(C)COC(=O)[C@@H]3CCCN(N3)C1=O)C(C)C)C2 (atropisomer, axis not shown) [Example A604] | 100 to 1000 nM | 1000 to 10000 nM | 100 to 1000 nM | 1000 to 10000 nM | 100 to 1000 | 100 to 1000 | 100 to 1000
14 | CCn1c(-c2cccnc2[C@H](C)OC)c2c3cc(ccc31)-c1cccc(c1)C[C@H](NC(=O)[C@H](C(C)C)N1CC[C@@]3(CCN(C(=O)C#C[C@H]4COCCN4C4COC4)C3)C1=O)C(=O)N1CCC[C@H](N1)C(=O)OCC(C)(C)C2 (atropisomer, axis not shown) [Example A567] | 10 to 100 nM | 1000 to 10000 nM | 1000 to 10000 nM | 1000 to 10000 nM | 100 to 1000 | 1000 to 10000 | 1000 to 10000
15 | CCn1c(-c2cccnc2[C@H](C)OC)c2c3cc(ccc31)-c1cnc(o1)C[C@H](NC(=O)[C@@H](COC1CN(C(=O)C#CC(C)(C)N(C)C)C1)C(C)C)C(=O)N1CCC[C@H](N1)C(=O)OCC(C)(C)C2 (atropisomer, axis not shown) [Example A649] | 10 to 100 nM | > 10000 nM | > 10000 nM | > 10000 nM | > 10000 | > 10000 | > 10000
